Source: PubChem BioAssay (NCI)
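A five-concentration, 48-hour dose response in 96-well plates underlies each endpoint, interpolated linearly between surrounding concentrations. The concentration for full growth arrest is given as TGI.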

Columns and labels:
Assay in all cases: inhibition of tumour cell growth, NCI panel, 48 h
ACHN renal = test system: ACHN renal
NCI-H23 lung = test system: NCI-H23 lung
SN12C renal = test system: SN12C renal
MALME-3M melanoma = test system: MALME-3M melanoma
HCC-2998 colon = test system: HCC-2998 colon
OVCAR-8 ovarian = test system: OVCAR-8 ovarian
OVCAR-4 ovarian = test system: OVCAR-4 ovarian
UACC-62 melanoma = test system: UACC-62 melanoma
DMS 273 small cell lung = test system: DMS 273 small cell lung
786-0 renal = test system: 786-0 renal
HCT-15 colon = test system: HCT-15 colon
XF 498 CNS = test system: XF 498 CNS
KM12 colon = test system: KM12 colon
M14 melanoma = test system: M14 melanoma
DMS 114 small cell lung = test system: DMS 114 small cell lung
SF-268 CNS = test system: SF-268 CNS
HL-60(TB) leukemia = test system: HL-60(TB) leukemia
SF-295 CNS = test system: SF-295 CNS
SNB-75 CNS = test system: SNB-75 CNS
OVCAR-5 ovarian = test system: OVCAR-5 ovarian
LOX IMVI melanoma = test system: LOX IMVI melanoma
DLD-1 colon = test system: DLD-1 colon
CAKI-1 renal = test system: CAKI-1 renal
UACC-257 melanoma = test system: UACC-257 melanoma
KM20L2 colon = test system: KM20L2 colon
A498 renal = test system: A498 renal
SNB-19 CNS = test system: SNB-19 CNS
EKVX NSCLC = test system: EKVX NSCLC
UO-31 renal = test system: UO-31 renal
RXF 393 renal = test system: RXF 393 renal
SF-539 CNS = test system: SF-539 CNS
COLO 205 colon = test system: COLO 205 colon
RPMI-8226 leukemia = test system: RPMI-8226 leukemia
CCRF-CEM leukemia = test system: CCRF-CEM leukemia
MOLT-4 leukemia = test system: MOLT-4 leukemia
IGROV1 ovarian = test system: IGROV1 ovarian
SK-OV-3 ovarian = test system: SK-OV-3 ovarian
NCI-H460 lung = test system: NCI-H460 lung
RXF-631 renal = test system: RXF-631 renal
K-562 leukemia = test system: K-562 leukemia
A549 NSCLC = test system: A549 NSCLC
NCI-H522 lung = test system: NCI-H522 lung
SK-MEL-28 melanoma = test system: SK-MEL-28 melanoma
SK-MEL-5 melanoma = test system: SK-MEL-5 melanoma
SK-MEL-2 melanoma = test system: SK-MEL-2 melanoma
TK-10 renal = test system: TK-10 renal
HT29 colon = test system: HT29 colon
SNB-78 CNS = test system: SNB-78 CNS
LXFL 529 NSCLC = test system: LXFL 529 NSCLC
U251 CNS = test system: U251 CNS
SW-620 colon = test system: SW-620 colon

Compound: Cn1c2c([N+](=O)[O-])cccc2c(=O)c2c(O)cc3c(c21)C=CC(C)(C)O3
- TGI (ACHN renal): > 100 µM
- TGI (NCI-H23 lung): > 100 µM
- TGI (SN12C renal): > 100 µM
- TGI (MALME-3M melanoma): > 100 µM
- TGI (HCC-2998 colon): > 100 µM
- TGI (OVCAR-8 ovarian): > 100 µM
- TGI (OVCAR-4 ovarian): 81 µM
- TGI (UACC-62 melanoma): > 100 µM
- TGI (DMS 273 small cell lung): > 100 µM
- TGI (786-0 renal): > 100 µM
- TGI (HCT-15 colon): > 100 µM
- TGI (XF 498 CNS): 45.2 µM
- TGI (KM12 colon): > 100 µM
- TGI (M14 melanoma): > 100 µM
- TGI (DMS 114 small cell lung): > 100 µM
- TGI (SF-268 CNS): > 100 µM
- TGI (HL-60(TB) leukemia): > 100 µM
- TGI (SF-295 CNS): 99.5 µM
- TGI (SNB-75 CNS): 84.5 µM
- TGI (OVCAR-5 ovarian): > 100 µM
- TGI (LOX IMVI melanoma): > 100 µM
- TGI (DLD-1 colon): > 100 µM
- TGI (CAKI-1 renal): > 100 µM
- TGI (UACC-257 melanoma): > 100 µM
- TGI (KM20L2 colon): > 100 µM
- TGI (A498 renal): > 100 µM
- TGI (SNB-19 CNS): > 100 µM
- TGI (EKVX NSCLC): > 100 µM
- TGI (UO-31 renal): > 100 µM
- TGI (RXF 393 renal): 62.1 µM
- TGI (SF-539 CNS): 76.2 µM
- TGI (COLO 205 colon): > 100 µM
- TGI (RPMI-8226 leukemia): > 100 µM
- TGI (CCRF-CEM leukemia): > 100 µM
- TGI (MOLT-4 leukemia): > 100 µM
- TGI (IGROV1 ovarian): > 100 µM
- TGI (SK-OV-3 ovarian): > 100 µM
- TGI (NCI-H460 lung): > 100 µM
- TGI (RXF-631 renal): > 100 µM
- TGI (K-562 leukemia): > 100 µM
- TGI (A549 NSCLC): > 100 µM
- TGI (NCI-H522 lung): 27.8 µM
- TGI (SK-MEL-28 melanoma): > 100 µM
- TGI (SK-MEL-5 melanoma): > 100 µM
- TGI (SK-MEL-2 melanoma): > 100 µM
- TGI (TK-10 renal): > 100 µM
- TGI (HT29 colon): > 100 µM
- TGI (SNB-78 CNS): > 100 µM
- TGI (LXFL 529 NSCLC): > 100 µM
- TGI (U251 CNS): > 100 µM
- TGI (SW-620 colon): > 100 µM
